The test system of one data set is glycemia. In words: Hypoglycemiant activity, variation of glycemia after 4 days of daily oral treatment. The class given is in vivo, male CD rats (Charles RIVER). Particulars: rat. On the procedure:
The hypoglycemiant properties have been studied on the male CD rats (Charles RIVER) weighing 200 to 250 g, in which the glycemia is controlled before treatment and then after 4 days of daily oral treatment. The seric glucose is determined by the method of W. S. Hoffmann (J. Biol. Chem., 1937, 120, 51). Groups of 10 rats are used and the hypoglycemiant activity is expressed by the percentage variation of the average glycemia of the treated animals with respect to that of the controls. If it is necessary, the statistical significance of the difference is determined by the test of the coefficient "t" of Student.

Data set [1] concerns isolated duodenum of rabbit, spasms induced by barium chloride. Description: Spasmolytic activity, musculotrope versus BaCl2, isolated duodenum (Magnus). An excerpt:
The spasmolytic activities are known by means of the technique of R. Magnus (Arch. Ges. Physiol., 1904, 102, 123) on the isolated duodenum of rabbits. The spasmolytic neurotropes inhibit the contractions of the organ caused by acetylcholine, while the musculotropes prevent the spasms induced by barium chloride. The EC 50 expressed in mg/litre are collected in the following Table where EC denotes "Effective concentration".

The test system of the next data set is mice. In words: Acute toxicity in mice, intravenous and oral (LD50). The class given is in vivo. An excerpt:
The acute toxicities of the compounds according to the invention have been determined CD 1 mice (Charles RIVER) by intravenous and oral methods. The LD50 calculated by the quantal cumulative method of J. J. Reed and H. Muench (Amer. J. Hyg. 1938, 27, 493) are collected in the following Table: […]

Take `CSc1c(NCCN(C(C)C)C(C)C)nc(N(C)c2ccccc2)nc1OCCCN(C)C` [Example 30, 2-N-methyl-N-phenyl-amino-4-(2'-di-isopropyl-amino)-ethylamino-5-methyl-thio-6-(dimethylaminoethyl)-methoxy-pyrimidine]: in the data set on glycemia, the “hypoglycemiant properties (in words)” value is on record as “strong hypoglycemiant properties”. The “Spasmolytic activity EC 50, musculotrope versus BaCl2” value in data set [1] is 1.00 µg/mL. The “Acute toxicity to mice LD 50, intravenous” value in the data set on mice (intravenous) is listed as 9.5 mg/kg. Further, the “Acute toxicity to mice LD 50, orally” value in the data set on mice (oral) was 200 mg/kg.
